Measurements: patent US20180243211A1, “A PHARMACEUTICAL COMPOSITION FOR REDUCING LOCAL FAT AND USES THEREOF” (Caliway Biopharmaceuticals Co., Ltd., priority 2015, published 2018)

These compounds were tested on mature adipocytes (differentiated 3T3-L1 cells) (assay: Experiment 9-2: apoptosis of mature adipocytes (annexin V/PI flow cytometry), resveratrol with lipophilic drugs). Settings: 50 ppm total drug (complexes 20 ppm resveratrol + 30 ppm second drug), 24 hours; DMSO control 4.9±2.5%.
Type: cell-based
Method: A DMSO control group cell culture medium, a resveratrol cell culture medium, a puerarin cell culture medium, a quercetin cell culture medium, a resveratrol-puerarin complex cell culture medium, and a resveratrol-quercetin complex cell culture medium were prepared as follows: The DMSO control group cell culture medium: DMSO was mixed with an appropriate amount of sterile water to obtain a 0.5% DMSO solution. The 0.5% DMSO solution was mixed with a cell culture medium (product name: Dulbecco's Modified Eagle Medium, purchased from Gibco) to prepare the DMSO control group cell culture medium, wherein, the volume ratio between the 0.5% DMSO solution and the cell culture medium is 1:1000. The resveratrol cell culture medium: resveratrol was mixed with an appropriate amount of 0.5% DMSO solution to obtain a resveratrol solution. The resveratrol solution was mixed with a cell culture medium (product name: Dulbecco's Modified Eagle Medium, purchased from Gibco) to prepare the resveratrol cell culture medium containing 50 ppm of resveratrol, wherein, the volume ratio between the resveratrol solution and the cell culture medium is 1:1000. The puerarin cell culture medium: puerarin (purchased from Sigma-Aldrich) was mixed with an appropriate amount of 0.5% DMSO solution to obtain a puerarin solution. The puerarin solution was mixed with a cell culture medium to prepare the puerarin cell culture medium containing 50 ppm of puerarin, wherein, the volume ratio between the puerarin solution and the cell culture medium is 1:1000. The quercetin cell culture medium: quercetin (purchased from Sigma-Aldrich) was mixed with an appropriate amount of 0.5% DMSO solution to obtain a quercetin solution. […] Annexin V protein (purchased from eBioscience) and propidium iodide (PI; purchased from eBioscience) were mixed with the cells in each group for a period of time, and then the percentage of cells labeled by annexin V protein and PI in each group was analyzed by flow cytometry to assess the percentage of mature adipocytes undergoing apoptosis. […]

Structure (SMILES) | percentage of apoptotic cells
O=c1c(-c2ccc(O)cc2)coc2c([C@@H]3O[C@H](CO)[C@@H](O)[C@H](O)[C@H]3O)c(O)ccc12 [puerarin] | 7.2±3.7%
O=c1c(O)c(-c2ccc(O)c(O)c2)oc2cc(O)cc(O)c12 [quercetin] | 5.9±2.6%
Oc1ccc(C=Cc2cc(O)cc(O)c2)cc1 [resveratrol] | 19.1±1.1%

The compounds below were run on mature adipocytes (differentiated 3T3-L1 cells) (assay: Experiment 10-2: apoptosis of mature adipocytes (annexin V/PI flow cytometry), resveratrol with hydrophilic drugs). Settings: 50 ppm total drug (complexes 20 ppm resveratrol + 30 ppm second drug), 24 hours; sterile water control 9.6±1.5%.
Type: cell-based
Method: A sterile water control group cell culture medium, a resveratrol cell culture medium, a caffeine cell culture medium, a L-carnitine cell culture medium, a resveratrol-caffeine complex cell culture medium, and a resveratrol-L-carnitine complex cell culture medium were prepared as follows: The sterile water control group cell culture medium: Sterile water was mixed with a cell culture medium to prepare the sterile water control group cell culture medium, wherein, the volume ratio between the sterile water and the cell culture medium is 1:1000. The resveratrol cell culture medium: it is the same method as the preparation of the resveratrol cell culture medium in Experiment 9-2. The caffeine cell culture medium: caffeine (purchased from Sigma-Aldrich) was mixed with an appropriate amount of sterile water to obtain a caffeine solution. The caffeine solution was mixed with a cell culture medium to prepare the caffeine cell culture medium containing 50 ppm of caffeine, wherein, the volume ratio between the caffeine solution and the cell culture medium is 1:1000. The L-carnitine cell culture medium: L-carnitine (purchased from Sigma-Aldrich) was mixed with an appropriate amount of sterile water to obtain a L-carnitine solution. The L-carnitine solution was mixed with a cell culture medium to prepare the L-carnitine cell culture medium containing 50 ppm of L-carnitine, wherein, the volume ratio between the L-carnitine solution and the cell culture medium is 1:1000. The resveratrol-caffeine complex cell culture medium: resveratrol, caffeine, and an appropriate amount of sterile water were mixed to obtain a resveratrol-caffeine complex solution. […] Annexin V protein (purchased from eBioscience) and propidium iodide (PI; purchased from eBioscience) were mixed with the cells in each group for a period of time, and then the percentage of cells labeled by annexin V protein and PI in each group was analyzed by flow cytometry to assess the percentage of mature adipocytes undergoing apoptosis.

Structure (SMILES) | percentage of apoptotic cells
C[N+](C)(C)C[C@H](O)CC(=O)[O-] [L-carnitine] | 5.2±1.2%
Cn1c(=O)c2c(ncn2C)n(C)c1=O [caffeine] | 6.9±1.1%
Oc1ccc(C=Cc2cc(O)cc(O)c2)cc1 [resveratrol] | 19.0±1.1%
